Test results from paper PMC8016166, “Identification of a Potent and Selective 5-HT1A Receptor Agonist with In Vitro and In Vivo Antinociceptive Activity” (ACS Chemical Neuroscience, 2020).

Legend:
5-HT2AR = target: T1, 5-HT2AR (Rattus norvegicus, UniProt P14842); assay: Radioligand binding at 5-HT2A on rat frontal cortex membranes; conditions: for selectivity 5-HT2A/5-HT1A: Antilog [pKi (5-HT1AR) – pKi (5-HT2AR)]; for Ki: read-out: 5-HT2A pKi ± SEM (converted)
T1 construct: from tissue; host or cells: frontal cortex of male Sprague-Dawley rats
T1 sequence (P14842 whole entry): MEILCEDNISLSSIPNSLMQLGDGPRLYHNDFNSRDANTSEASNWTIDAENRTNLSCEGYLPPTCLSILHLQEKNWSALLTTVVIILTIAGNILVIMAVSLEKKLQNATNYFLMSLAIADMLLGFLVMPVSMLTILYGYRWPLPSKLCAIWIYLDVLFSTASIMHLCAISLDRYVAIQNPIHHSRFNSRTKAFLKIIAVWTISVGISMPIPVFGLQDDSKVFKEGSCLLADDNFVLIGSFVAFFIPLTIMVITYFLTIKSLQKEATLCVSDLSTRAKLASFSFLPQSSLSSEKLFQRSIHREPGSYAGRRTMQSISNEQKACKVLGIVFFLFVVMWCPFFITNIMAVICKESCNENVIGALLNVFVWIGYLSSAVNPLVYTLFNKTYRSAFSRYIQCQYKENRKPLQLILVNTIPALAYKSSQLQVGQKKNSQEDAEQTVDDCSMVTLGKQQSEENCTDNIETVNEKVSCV
Description: Male Sprague–Dawley rats were decapitated and their brains removed and placed on ice. The hippocampi (for the functional 5-HT1A receptor assay) or frontal cortexes (for the competitive 5-HT2A and 5-HT2C receptor assays) were dissected and homogenized with a glass homogenizer in 30 vol. ice-cold TED buffer (50 mMTris-HCl, 1 mM EDTA, 1 mM dithiotheritol, pH 7.4). Next, the homogenate was centrifuged at 21 000g for 30 min at 4 °C. The pellet was suspended in 30 vol TED buffer (pH 7.4) and incubated in a water bath for 10 min at 37 °C to remove endogenous ligands. The suspension was centrifuged again at 21 000g for 30 min at 4 °C. The pellet was resuspended in 30 vol TED buffer (pH 7.4) and the centrifugation step was repeated. The final pellet was suspended in 10 vol 50 mM Tris-HCl (pH 7.4) and stored at −80 °C until use.[47]
The 5-HT2A assay was performed according to a previously described protocol with some modifications.[48] […] Nonspecific binding was determined in the presence of 10 μM mianserin. For the 5-HT2C assay, the frontal cortex homogenates (250 μg protein/mL) were incubated in triplicate with 1 nM [^3H]mesulergine for 60 min at 36 °C in a 50 mM Tris-HCl (pH 7.4) buffer containing 0.1% ascorbate, 10 mM MgCl2, 10 μM pargyline, 100 nM spiperone, and increasing concentrations (10^–10–10^–5 M) of the compound tested. After incubation, the reaction mixture was deposited onto UniFilter-96 GF/B plates, with the aid of a FilterMate-96 Harvester. The filter plates were presoaked with 0.4% PEI for 1 h. Next, each filter well was washed with 1.75 mL of 50 mM Tris-HCl (pH 7.4) and left to dry on a heating block set to 50 °C for 2 h. Then, 45 μL of Microscint-20 scintillation fluid was added to each filter well and left to equilibrate overnight. The filter-bound radioactivity was counted in a MicroBeta^2 Microplate Counter. Curves were fitted with a one-site sigmoidal dose–response equation and pKi for each compound was calculated with the Cheng-Pursoff equation. Results were analyzed with one-way ANOVA followed by the Bonferroni’s posthoc test. The results are expressed as means ± SEM of three independent experiments.

Hep-G2 cells = assay: Hep-G2 cell viability (MTT assay); type: cell-based; conditions: 72 h; for hepatic cell viability vs untreated control cells: 50 μM; for hepatic cell viability (toxicity): concentrations ≤10 μM
Description: HEK293 cells with stable expression of human 5-HT1A, 5-HT6, and 5-HT7b (prepared with the use of Lipofectamine 2000) were grown in Dulbecco’s Modified Eagle Medium (DMEM) containing 10% dialyzed fetal bovine serum (FBS) and 500 μg/mL G418 sulfate. Liver hepatocellular carcinoma Hep-G2 cells were cultured in DMEM enriched by 10% FBS, 2 mM L-glutamine, 100 IU/mL penicillin, and 50 μg/mL streptomycin (all from Sigma-Aldrich Corporation, a division of Merck KGaA, Darmstadt, Germany). Cell lines were maintained at 37 °C in a humidified atmosphere with 5% CO2. For membrane preparation, the cells were subcultured in 150 cm^2 flasks, grown to 90% confluence, washed twice with prewarmed to 37 °C phosphate buffered saline (PBS), and pelleted by centrifugation (200g) in PBS containing 0.1 mM EDTA and 1 mM dithiothreitol. Prior to membrane preparation, pellets were stored at −80 °C.
Liver hepatocellular carcinoma Hep-G2 cells were seeded in 96-well plates (1 × 10^4 cells/well) and maintained under continuous stimulation with increasing concentrations (nM−μM range) of the tested compounds. 200 mM ethanol and 5% Triton X-100 (Sigma-Aldrich Corporation) served as controls. The viability of cells was assessed by MTT assay as previously described.[66],[67] The absorbance was detected by a Victor3 plate reader (PerkinElmer Inc., Waltham, MA, USA) and represented by box and whiskers plot, as a measure of cell viability. Differences between values from treated and untreated cells were evaluated by two-ANOVA followed by Dunnett’s multiple comparison test (p < 0.05).

male Albino Swiss mice = assay: Hot plate test; type: in vivo, mouse
Description: The experiments were performed on male Albino Swiss mice (20–25 g), where 4 animals were kept in a cage, in an environmentally controlled room (ambient temperature 22 ± 1 °C; relative humidity 50–60%; 12 h light/dark cycle, lights on at 8:00). Standard laboratory food (LSM, Agropol-Motycz, Poland) and filtered water were available ad libitum. All the behavioral experiments were carried out in accordance with the European Community Council Directive for Care and Use of Laboratory Animals (2010/63/EU) (2016), and approved by the Local Ethics Committee for Animal Experimentation. The tested compounds were administered intraperitoneally (i.p.), dissolved in DMSO (its final concentration of 0.1%), suspended in 0.5% Tween-80 (1–2 drops) and then diluted using an aqueous solution of 0.5% methylcellulose (tylose). All the compounds were given in a manner generally accepted in experimental pharmacology, in a volume of 10 mL/kg body weight. The animals were weighed immediately before injection. Each group consisted of 8 members. The control animals received an equivalent volume of the solvent at the respective time before the tests. […] Between injections, the mice were provided with stable living conditions and unrestricted access to food and water. All the experiments were conducted in the light phase between 09.00 a.m. and 05.00 p.m. For the hot plate test, the mice were placed on a hot plate (Ugo Basile Srl, Gemonio, Italy) maintained at a constant temperature of 55 °C with a cutoff time of 20 s. The baseline latency response (in seconds), induced by the thermal stimulus, with the mouse lifting either of the hind paws or jumping with all four feet off the hot plate, before administration of a compound was measured first. The animals were then administered with compounds and the post-treatment latency responses were determined at 30 min time intervals up to 180 min after drug injection. The antinociceptive effects of the compounds were expressed as a percentage of maximum possible effect (%MPE), which was calculated according to the following equation: [(T1 – T0)/(20 – T0)] × 100, where T0 and T1 are the predrug and post-drug latencies for hot plate response, respectively.[37],[38] The results were calculated using the one-way analysis of variance (ANOVA) followed by Bonferroni’s post hoc test. The results are presented as the means ± standard errors of mean (S.E.M.). The level of p < 0.05 was considered statistically significant. All the figures were prepared using the GraphPad Prism ver. 5.00 for Windows (GraphPad Software, San Diego, CA, USA), www.graphpad.com.

5-HT1AR = target: 5-HT1AR; set-up: method as in PMID 30043643; conditions: previous work; cited from earlier work
α1 = tested on: α1; set-up: method as in PMID 30043643; conditions: previous work; cited from earlier work

SMILES | selectivity 5-HT2A/5-HT1A (5-HT2AR) | Ki (5-HT2AR) [nM] | hepatic cell viability vs untreated control cells (Hep-G2 cells) | hepatic cell viability (toxicity) (Hep-G2 cells) | reaction time to the thermal stimulus (hot plate) (male Albino Swiss mice; mice, 5 mg/kg i.p.) | reaction time to the thermal stimulus (hot plate) (male Albino Swiss mice; mice, 10 mg/kg i.p., 30, 90, 120 and 180 min) | reaction time to the thermal stimulus (hot plate) (male Albino Swiss mice; mice, 20 mg/kg i.p., 30, 90, 120 and 180 min) | antinociceptive effect in hot plate with WAY-100635 (male Albino Swiss mice; mice, (S)-1 10 mg/kg + WAY-100635 3 mg/kg, at 30 min) | 5-HT1AR affinity pKi (5-HT1AR) | selectivity 5-HT1A/α1 (α1) | hepatic cell viability (Hep-G2 cells; 10 and 5 μM) | MPE values in the hot plate test (male Albino Swiss mice; mice, 5, 10 and 20 mg/kg i.p., 30-180 min)
c1ccc(C2(c3ccccc3)OC[C@H](CNCCOc3ccccc3-c3ccncc3)O2)cc1 [(S)-1, N-[(2,2-Diphenyl-1,3-dioxolan-4-yl)methyl]-2-[2-(pyridin-4-yl)phenoxy]ethan-1-ammonium hydrogenoxalate] | 85 | 794 | no effect | very low toxicity | a significant effect was only noted at 120 and 180 min | significantly increased | significantly increased the reaction time | significantly reversed the antinociceptive effect | – | – | – | –
Cn1cncc1-c1ccccc1OCCNCC1COC(c2ccccc2)(c2ccccc2)O1 (racemic) [rac-2, N-((2,2-diphenyl-1,3-dioxolan-4-yl)methyl)-2-(2-(1-methyl-1H-imidazol-5-yl)phenoxy)ethan-1-ammonium hydrogenoxalate] | 56 | 417 | – | – | – | – | – | – | 8.98 | 132 | – | –
Cn1cncc1-c1ccccc1OCCNC[C@@H]1COC(c2ccccc2)(c2ccccc2)O1 [(R)-2, N-((2,2-Diphenyl-1,3-dioxolan-4-yl)methyl)-2-(2-(1-methyl-1H-imidazol-5-yl)phenoxy)ethan-1-ammonium hydrogenoxalate] | 74 | 891 | negatively impacted cell viability | very low toxicity | – | – | – | – | – | – | – | –
c1ccc(C2(c3ccccc3)OC[C@@H](CNCCOc3ccccc3-c3ccncc3)O2)cc1 [(R)-1, N-[(2,2-Diphenyl-1,3-dioxolan-4-yl)methyl]-2-[2-(pyridin-4-yl)phenoxy]ethan-1-ammonium hydrogenoxalate] | 355 | 1580 | negatively impacted cell viability | very low toxicity | – | – | – | – | – | – | – | –
Cn1cncc1-c1ccccc1OCCNC[C@H]1COC(c2ccccc2)(c2ccccc2)O1 [(S)-2, N-((2,2-Diphenyl-1,3-dioxolan-4-yl)methyl)-2-(2-(1-methyl-1H-imidazol-5-yl)phenoxy)ethan-1-ammonium hydrogenoxalate] | 245 | 1000 | negatively impacted cell viability | – | – | – | – | – | – | – | decreased cell viability | –
c1ccc(C2(c3ccccc3)OCC(CNCCOc3ccccc3-c3ccncc3)O2)cc1 (racemic) [rac-1, N-[(2,2-diphenyl-1,3-dioxolan-4-yl)methyl]-2-[2-(pyridin-4-yl)phenoxy]ethan-1-ammonium hydrogenoxalate] | 123 | 1120 | – | – | – | – | – | – | 9.2 | 135 | – | did not reveal any significant change in the MPE values
